Laboratory results as given in publication PMC9841532, “Exploring the Effect of Halogenation in a Series of Potent and Selective A2B Adenosine Receptor Antagonists” (Journal of Medicinal Chemistry, 2022).
≈ marks a conversion by molar mass, not a printed value. Where two headings read alike, the source gives them in different places.

Experiments:
hA2BAR = target: T1, hA2BAR (Homo sapiens, UniProt P29275); assay: Radioligand binding competition, [3H]DPCPX, membranes from HEK-293-A2B cells; set-up: Exp. dG: unit not given here; conditions: for Ki: read-out: Ki hA2B; for Exp. dG: experimental binding free energy, Supplementary Table S3, unit not given (errors in kcal/mol)
T1 construct: host or cells: HEK-293 (HEK-293-A2B) cell membranes
T1 sequence (P29275 1-332): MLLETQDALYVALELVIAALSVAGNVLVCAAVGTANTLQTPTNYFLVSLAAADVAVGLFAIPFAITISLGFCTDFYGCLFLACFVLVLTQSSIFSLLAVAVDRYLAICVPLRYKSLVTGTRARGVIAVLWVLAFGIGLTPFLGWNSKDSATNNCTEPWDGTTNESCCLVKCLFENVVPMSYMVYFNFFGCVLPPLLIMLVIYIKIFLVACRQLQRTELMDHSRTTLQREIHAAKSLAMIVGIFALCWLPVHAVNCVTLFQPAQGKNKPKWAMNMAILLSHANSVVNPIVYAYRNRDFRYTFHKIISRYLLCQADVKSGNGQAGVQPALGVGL
Summary of the method: (§1)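 Racemates, plus selected enantiomers after chiral resolution, were tested at 25 °C, with a 60 min incubation for one subtype and 30 min for others. Non-specific binding was defined with 10 μM or 100 μM R-PIA. Bound radioactivity was counted after washing and filtration.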

CYP3A4 = target: T2, CYP3A4 (Homo sapiens, UniProt P08684); assay: CYP3A4 inhibition (fluorescence, substrates DBF or 7-BFC); type: biochemical; conditions: for IC50: IC50 obtained by extrapolation with analysis software
T2 construct: host or cells: insect cell microsomes
T2 sequence (P08684 whole entry): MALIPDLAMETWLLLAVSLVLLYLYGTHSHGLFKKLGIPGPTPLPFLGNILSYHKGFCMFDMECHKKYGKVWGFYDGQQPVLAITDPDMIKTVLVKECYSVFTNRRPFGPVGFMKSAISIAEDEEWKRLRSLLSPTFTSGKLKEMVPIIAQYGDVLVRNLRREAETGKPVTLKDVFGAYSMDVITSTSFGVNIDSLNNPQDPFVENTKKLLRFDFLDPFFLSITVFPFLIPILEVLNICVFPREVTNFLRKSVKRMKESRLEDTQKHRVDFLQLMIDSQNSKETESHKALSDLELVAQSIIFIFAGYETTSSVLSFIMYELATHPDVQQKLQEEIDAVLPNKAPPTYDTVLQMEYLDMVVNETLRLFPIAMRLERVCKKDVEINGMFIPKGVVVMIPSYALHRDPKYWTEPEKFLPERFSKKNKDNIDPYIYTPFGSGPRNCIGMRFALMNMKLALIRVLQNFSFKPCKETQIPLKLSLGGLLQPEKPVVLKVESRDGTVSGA
Description: To identify potential metabolic liabilities within the series here documented, the selected A2BAR antagonists were tested in vitro for CYP3A4 inhibitory activity.
The inhibitory activity of selected compounds was evaluated by following a previously described method.[31] […] The plate was then pre-incubated at 37 °C for 5 min and the reaction initiated by the addition of a pre-warmed enzyme/substrate (E/S) mix. The E/S mix contained buffer (KH2PO4), c-DNA-expressed P450 in insect cell microsomes, substrate (DBF: dibenzylfluorescein or 7-BFC: 7-benzyloxy-4-trifluoromethyl-coumarin) and other components to give the final assay concentrations in a reaction volume of 200 μL. Reactions were terminated after various times (a specific time for each cytochrome) by addition of STOP solution (ACN/Tris–HCl 0.5 M 80:20, and NaOH 2 N for CYP3A4). Fluorescence per well was measured using a fluorescence plate reader (Tecan Infinite M1000 PRO), and percentage of inhibition was calculated. In silico predictions were performed using free web-based models (FAME 3, SmartCYP, and Xenosite).[62]−[64]

hA2AAR = target: T3, hA2AAR (Homo sapiens, UniProt P29274); assay: Radioligand binding competition, [3H]ZM241385, membranes from HeLa-A2A cells; conditions: 1 μM, [3H]ZM241385, human HeLa cells, n = 2
T3 construct: expressed in transfected cells; host or cells: HeLa (HeLa-A2A) cell membranes
T3 sequence (P29274 whole entry): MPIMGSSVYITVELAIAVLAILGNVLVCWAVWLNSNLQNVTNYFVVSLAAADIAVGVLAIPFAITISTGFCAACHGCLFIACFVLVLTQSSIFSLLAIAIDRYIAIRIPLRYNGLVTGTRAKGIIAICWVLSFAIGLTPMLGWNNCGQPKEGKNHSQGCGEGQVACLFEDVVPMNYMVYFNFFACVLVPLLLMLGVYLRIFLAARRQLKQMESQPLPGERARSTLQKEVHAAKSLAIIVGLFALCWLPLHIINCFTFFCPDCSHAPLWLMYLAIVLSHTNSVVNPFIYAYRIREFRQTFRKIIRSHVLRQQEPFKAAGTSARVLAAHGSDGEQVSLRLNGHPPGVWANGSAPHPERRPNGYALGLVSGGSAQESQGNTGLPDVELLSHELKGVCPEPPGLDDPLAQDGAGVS
Summary of the method: as §1

hA3AR [1] = target: T4, hA3AR (Homo sapiens, UniProt P0DMS8); assay: Radioligand binding competition, [3H]NECA, membranes from HeLa-A3 cells; conditions: 1 μM, [3H]NECA, human HeLa cells, n = 2
T4 construct: expressed in transfected cells; host or cells: HeLa (HeLa-A3) cell membranes
T4 sequence (P0DMS8 1-318): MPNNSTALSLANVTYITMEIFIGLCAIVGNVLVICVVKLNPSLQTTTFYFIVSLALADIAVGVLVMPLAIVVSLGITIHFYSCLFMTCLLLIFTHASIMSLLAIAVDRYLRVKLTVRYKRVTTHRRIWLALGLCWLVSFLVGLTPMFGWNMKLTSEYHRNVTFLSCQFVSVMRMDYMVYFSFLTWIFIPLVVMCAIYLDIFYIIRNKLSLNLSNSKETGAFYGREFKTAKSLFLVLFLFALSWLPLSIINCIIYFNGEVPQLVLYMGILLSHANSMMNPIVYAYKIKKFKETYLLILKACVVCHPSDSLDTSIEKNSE
Summary of the method: as §1

[2] = Human microsomal stability; type: in vitro ADME; conditions: human microsomes; for half-life at 1 h: read-out: microsomal stability t1/2
Description: The human microsomal stability of selected compounds was evaluated by following a previously described method.[31] The human microsomes employed were purchased from Tebu-Xenotech. The compound was incubated with the microsomes at 37 °C in a 50 mM phosphate buffer (pH = 7.4) containing 3 mM MgCl2, 1 mM NADP, 10 mM glucose-6-phosphate, and 1 U/mL glucose-6-phosphate-dehydrogenase. Samples (75 μL) were taken from each well at 0, 10, 20, 40, and 60 min and transferred to a plate containing 4 °C 75 μL acetonitrile and 30 μL of 0.5% formic acid in water was added for improving the chromatographic conditions. The plate was centrifuged (46,000 g, 30 min), and supernatants were taken and analyzed in a UPLC-MS/MS (Xevo TQD, Waters) by employing a BEH C18 column and an isocratic gradient of 0.1% formic acid in water:0.1% formic acid acetonitrile (60:40). The metabolic stability of the compounds was calculated from the logarithm of the remaining compounds at each of the time point studied.

[3] = Solubility determination (nephelometry); type: physicochemical; conditions: 1:99 DMSO/PSB buffer, PBS pH 7, 37 °C
Description: The solubility of selected compounds was evaluated by following a previously described method.[31] A 10 mM stock solution of the compound was serially diluted in 100% DMSO, and 2.5 μL of this solution was added to a 384-well UV-transparent plate (Greiner) containing 47.5 μL of PBS (pH = 7). The plate was incubated at 37 °C for 4 h, and the light scattering was measured in a NEPHELOstar Plus reader (BMG LABTECH). The data was fitted to a segmented linear regression for measuring the compound solubility.

hA1AR [4] = target: T5, hA1AR (Homo sapiens, UniProt P30542); assay: Radioligand binding competition, [3H]DPCPX, membranes from CHO-A1 cells; conditions: for % at 1 μM hA1 (percentage displacement of specific binding): [3H]DPCPX, human CHO cells, n = 2
T5 sequence (P30542 1-326): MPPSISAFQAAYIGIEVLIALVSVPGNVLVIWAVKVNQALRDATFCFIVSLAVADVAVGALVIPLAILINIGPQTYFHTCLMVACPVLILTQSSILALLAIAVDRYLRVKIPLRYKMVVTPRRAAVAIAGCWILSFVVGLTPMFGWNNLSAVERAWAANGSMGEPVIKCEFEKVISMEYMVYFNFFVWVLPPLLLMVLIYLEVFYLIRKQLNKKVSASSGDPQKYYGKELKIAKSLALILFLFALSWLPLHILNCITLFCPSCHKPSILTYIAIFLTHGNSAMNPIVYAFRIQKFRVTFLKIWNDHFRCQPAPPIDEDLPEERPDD
Summary of the method: as §1

A2B = conditions: cited from earlier work
hA3AR [5] = target: T4, hA3AR; conditions: prototype series, [3H]NECA, human HeLa cells ref 30, 31; cited from earlier work
hA1AR [6] = target: T5, hA1AR; conditions: prototype series, [3H]DPCPX, human CHO cells ref 30, 31; cited from earlier work
[7] = displacement of specific [3H]DPCPX binding in human HEK-293 cells, n = 3
[8] = Figure 1, representative A2B antagonists ref 28-32, read-out: Ki

| Compound | Ki (hA2BAR; [7]) [nM] | % at 1 μM hA2A (percentage displacement of specific binding) (hA2AAR) [%] | % at 1 μM hA3 (percentage displacement of specific binding) (hA3AR [1]) [%] | Ki (A2B; [8]) [nM] | % at 1 μM hA1 (percentage displacement of specific binding) (hA1AR [4]) [%] | further results |
| --- | --- | --- | --- | --- | --- | --- |
| CC1=C(C(=O)OC(C)C)C(c2ccco2)n2c(nc3ccc(Cl)cc32)N1 (stereo not shown) [15j] | 44.3 ± 1.4 | 17 | 5 |  |  | Exp. dG (hA2BAR): -10.03; CYP3A4 % inh. at 10 μM, 7-BFC (CYP3A4; 10 μM, substrate 7-benzyloxy-4-trifluoromethyl-coumarin): 11%; CYP3A4 % inh. at 10 μM, DBF (CYP3A4; 10 μM, substrate dibenzylfluorescein): 47%; IC50 (CYP3A4; substrate 7-benzyloxy-4-trifluoromethyl-coumarin, read-out: CYP3A4 IC50, 7-BFC): > 10000 nM; IC50 (CYP3A4; substrate dibenzylfluorescein, read-out: CYP3A4 IC50, DBF): > 10000 nM; microsomal stability percent (percentage remanent) ([2]; sampling time 60 min): 16.83%; microsomal CLint at 1 h ([2]; human, pH 7.4, read-out: microsomal stability Clint (intrinsic clearance)): 26.4 µL/min/mg; half-life at 1 h ([2]; human, pH 7.4): 21.1 min; solubility at 4 h [3]: 58.2 µM (≈ 21.6 µg/mL); Ki (hA1AR [4]; displacement of specific [3H]DPCPX binding in human CHO cells, n = 3, read-out: Ki hA1): 667 ± 12 nM |
| CCCn1c(=O)c2[nH]c(-c3cnn(Cc4cccc(C(F)(F)F)c4)c3)nc2n(CCC)c1=O [CVT-7124] |  |  |  | 6 |  |  |
| PSB-603 |  |  |  |  |  | Ki (A2B; Table 8 ref 28, read-out: hA2B Ki): 0.553 nM |
| CCOC(=O)C1=C(C)Nc2nc3ccccc3n2C1c1cocn1 (stereo not shown) [IX] |  |  |  | 8.1 |  |  |
| c1cncc(Nc2ncc(-c3ccncn3)c(-c3ccco3)n2)c1 [LAS38096, 4′-(2-Furyl)-N-Pyridin-3-Yl-4,5‘-Bipyrimidin-2‘-Amine] |  |  |  | 17 |  |  |
| CC(=O)[C@H]1CC[C@H]2[C@@H]3CCC4=CC(=O)CC[C@]4(C)[C@H]3CC[C@]12C [progesterone, reference compound] |  |  |  |  |  | solubility at 4 h [3]: 6.7 µM (≈ 2.11 µg/mL) |
| C[C@]12CC[C@H]3[C@@H](CCC4=CC(=O)CC[C@@]43C)[C@@H]1CC[C@@H]2O [testosterone, reference compound] |  |  |  |  |  | half-life at 1 h ([2]; human, pH 7.4): 16.1 min |
| CC1=C(C(=O)OC(C)C)[C@@H](c2ccco2)n2c(nc3ccccc32)N1 [(S)-ISAM-140] | 0.89 ± 0.2 | 12 | 4 |  | 2 | Ki hA2B (hA2BAR; [7]): sub-nanomolar |
| CC1=C(C(=O)OC(C)C)C(c2ccco2)NC(=S)N1 (stereo not shown) [SYAF030] |  |  |  | 10.2 |  |  |
| CCCn1c(=O)[nH]c2nc(-c3ccc(S(=O)(=O)N4CCN(c5ccc(Br)cc5)CC4)cc3)[nH]c2c1=O [PSB-1901] |  |  |  | 0.083 |  |  |
| CCOC(=O)C1=C(C)Nc2nc3cc(Br)c(Br)cc3n2C1c1cccs1 (stereo not shown) [14u] |  | 7 | 5 |  | 2 | % at 1 μM hA2B (percentage displacement of specific binding) (hA2BAR; 1 μM, [3H]DPCPX, human HEK-293 cells, n = 2): 12% |
| CC1=C(C(=O)OC(C)C)C(c2ccco2)n2c(nc3cc(Cl)c(Cl)cc32)N1 (stereo not shown) [14j] | 117 ± 5 | 12 | 7 |  | 43 |  |
| CCOC(=O)C1=C(C)Nc2nc3ccc(F)cc3n2C1c1ccsc1 (stereo not shown) [15g] | 1030 ± 95 | 1 | 3 |  | 7 | Exp. dG (hA2BAR): -8.162 |
| CCOC(=O)C1=C(C)Nc2nc3cc(Br)ccc3n2C1c1ccco1 (stereo not shown) [16q] | 26.9 ± 0.8 | 29 | 33 |  | 18 |  |
| CC1=C(C(=O)OC(C)C)C(c2ccoc2)n2c(nc3ccccc32)N1 (stereo not shown) [IV] |  |  |  |  |  | Exp. dG (hA2BAR): -10.83; % at 1 μM hA3 (percentage displacement of specific binding) (hA3AR [5]): 2%; % at 1 μM hA1 (percentage displacement of specific binding) (hA1AR [6]): 12% |
| CCOC(=O)C1=C(C)Nc2nc3cc(Cl)c(Cl)cc3n2C1c1ccoc1 (stereo not shown) [14k] | 54.7 ± 3.2 | 34 | 6 |  | 33 |  |
| CC1=C(C(=O)OC(C)C)C(c2ccsc2)n2c(nc3cc(Br)ccc32)N1 (stereo not shown) [16x] | 61.1 ± 1.8 | 1 | 4 |  | 2 |  |
| O=c1c(-c2ccccc2)nnc2n(-c3ccccc3)c3ccc(Cl)cc3n12 [compound 5] |  |  |  | 1.4 |  |  |
| CC1=C(C(=O)OC(C)C)C(c2ccoc2)n2c(nc3cc(F)ccc32)N1 (stereo not shown) [16d] | 8.6 ± 0.5 | 31 | 4 |  | 14 | Exp. dG (hA2BAR): -11; Ki (hA2BAR): < 10 nM |
